Assay results reported in US12630523B2, “Isoquinoline derivatives for use as antiviral and antitumour agents” (priority 2021, dated 2026).
pEC50: −log10 of the molar value. Values joined by “and” are separate entries in the source; they are usually repeats but may differ in a detail not shown here. Identical values can stand only once. Like-named read-outs stand apart in the source and are kept apart here.

Tests used:
[1] = system: CaSki cells; test: Cell cycle analysis using Propidium-Iodide staining (flow cytometry); assay type: cell-based, human; details: 48 hour incubation; for A*/5 μM (apoptosis as measured from total SUB G1 content) / A*/10 μM (apoptosis as measured from total SUB G1 content): no treatment 15.0; for G2/5 μM / G1/5 μM / G2/10 μM / G1/10 μM: cell cycle distribution; for G2/5 μM / G2/10 μM: no treatment 15.6; for G1/5 μM / G1/10 μM: no treatment 53.3
Procedure: Propidium-Iodide (PI) DNA staining is performed to facilitate cell cycle analysis. For PI-DNA staining, fixed cells and eventually antibody-stained cells are resuspended in 450 μl of PBS (per 10^6 cells) and incubated with 100 μg/ml RNase (stock 1 mg/ml, in PBS) for 10 minutes at 37° C. Cells are then incubated with 5 μg/106 cells of PI (stock 1 mg/ml in PBS) for 10 minutes at room temperature. Samples are stored at 4° C. until CF analysis.
CaSki cells were incubated with various compounds and cell cycle distribution of the cells was assessed using Propidium-Iodide staining.
In order to analyze the cytostatic versus the cytotoxic effect of OC compounds, cell cycle profiles were analyzed in vitro after 48 hour incubations using Flow Cytometry as a read out. For this a cell cycle analysis from selected OC E7 degrader compounds was conducted in CaSki cells. Using 6 well plates, 1.5×10^5 cells were seeded for each well and grown over night at 37° C. 5% CO2. For analysis of the cell cycle behavior, cells were analyzed in the presence of propidium Iodide (PI^−) by flow cytometry (FC). Briefly, cells were detached by trypsin digestion, all supernatants were included in the analysis, and fixed with 70% ice cold ethanol and stored at 4° C. until FC analysis using PI^− staining (1 mg/ml). At least 7000 events were acquired for each sample.

[2] = system: SARS-CoV-2 isolate BetaCov/Belgium/GHB-03021/2020; test: microbe, parasite or virus in culture; assay type: cell-based; details: for inhibition at 1.25 µM: Severe acute respiratory syndrome coronavirus 2, 1.25 μM (non-toxic compound concentration), n4; for SARS-CoV-2 antiviral activity, mono treatment or combination (FIG. 10): Vero E6 cells, VSP035 10-0.625 μM
[3] = system: CaSki (ATCC CRM-CRL-1550); test: Monolayer assay using Sulphorhodamine B (SRB) staining, CaSki; assay type: cell-based; details: Homo sapiens, Ca-Ski; for EC50: read-out: EC50 mean [nM]
Procedure, shortened: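 After 24 h recovery, 10.000–30.000 cells/well treated 72 h with compound at 9 concentrations. Cells TCA-fixed (10% final) 1 h at 4 °C, SRB-stained, optical density read at 540 nm; EC50 for growth inhibition from non-linear regression of log concentration versus % T/C.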

SMILES | A*/5 μM (apoptosis as measured from total SUB G1 content) [1] | A*/10 μM (apoptosis as measured from total SUB G1 content) [1] | G2/5 μM [1] | G1/5 μM [1] | G2/10 μM [1] | G1/10 μM [1] | inhibition at 1.25 µM [2] | EC50 [3] | pEC50 ([3]; 72 h) | SARS-CoV-2 antiviral activity, mono treatment or combination (FIG. 10) [2] | SARS-CoV-2 antiviral activity, mono treatment or combination (FIG. 10) ([2]; listed as VS035)
CN1CCC(CN2C(=O)c3ccccc3[C@@H](C(=O)Nc3cccc(N4CCN(C)CC4)c3)[C@@H]2c2ccc(C(F)(F)F)cc2)CC1 (racemic) [OC974, (3R,4R)- and (3S,4S)-N-[3-(4-methylpiperazin-1-yl)phenyl]-2-[(1-methylpiperidin-4-yl)methyl]-1-oxo-3-[4-(trifluoromethyl)phenyl]-3,4-dihydroisoquinoline-4-carboxamide] | 19.5% | 82.9% and 81.8% | 9.9% | 49.6% | 0.8% | 8.7% | 54.3% | 1550 nM | – | – | –
Cc1ccc(CN2C(=O)c3ccccc3[C@H](C(=O)Nc3cccc(N4CCN(C)CC4)c3)[C@@H]2c2ccc(C(F)(F)F)cc2)cc1 [OC246, N-[3-(4-methylpiperazin-1-yl)phenyl]-2-[(4-methylphenyl)methyl]-1-oxo-3-[4-(trifluoromethyl)phenyl]-1,2,3,4-tetrahydroisoquinoline-4-carboxamide] | 19.6% | 89.4% | 15.7% | 48.0% | 0.2% | 1.5% | 45.7% | 3050 nM | 5.54 | – | –
CN1CCC(CN2C(=O)c3ccccc3[C@H](C(=O)Nc3cccc(N4CCN(C)CC4)c3)[C@H]2c2ccc(C(F)(F)F)cc2)CC1 [VSP035, (3S,4S)-N-[3-(4-methylpiperazin-1-yl)phenyl]-2-[(1-methylpiperidin-4-yl)methyl]-1-oxo-3-[4-(trifluoromethyl)phenyl]-1,2,3,4-tetrahydroisoquinoline-4-carboxamide] | – | – | – | – | – | – | 72.4% | 3750 nM | – | moderate | Robust antiviral activities
